Test results from patent publication US12419339B2, “Aerosolized formulation” (priority 2018, dated 2025).
Read-outs that look alike come from different tables or passages of the source.

Format: physicochemical
Conditions: prior to aerosolization

| Structure (SMILES) | liquid analysis, content (formulation containing 1-menthol (83.1% water, 15.0% 2-hydroxy-propyl-β-cyclodextrin, 0.9% 1-menthol, 1% nicotine)) | liquid analysis, content (formulation containing 1-menthol) [mg/g] | liquid analysis, content (formulation containing vanillin) [mg/g] |
| --- | --- | --- | --- |
| CC1CCC(C(C)C)C(O)C1 (stereo not drawn) [1-menthol] | 0.8 % (w/w) | 8 |  |
| COc1cc(C=O)ccc1O [vanillin] |  |  | 5 |
